≈ marks a conversion by molar mass, not a printed value. Where two headings read alike, the source gives them in different places. Where a SMILES comes first, the peptide text is derived from it. The star is where a group is joined. Decanoyl = CCCCCCCCCC(=O)*; Octanoyl = CCCCCCCC(=O)*
How the values were obtained:
Assay type in all cases: cell-based
[1] = system: Aspergillus brasiliensis (ATCC 16404); conditions: ATCC 16404, 48 h
Procedure: (§1) The minimum inhibitory concentration (MIC), minimum bactericidal concentration (MBC) and minimum fungicidal concentration (MFC) were determined according to the procedure recommended by the Clinical Laboratory Standards Institute (CLSI). The following reference strains were tested: Gram-negative E. coli (ATCC 25922), K. pneumoniae (ATCC 700603), P. vulgaris (PCM 2668), P. aeruginosa (ATCC 9027), Gram-positive S. aureus (ATCC 25923), S. epidermidis (PCM 2118), B. subtilis (ATCC 6633), E. faecalis (ATCC 29212) and fungi C. albicans (ATCC 10231), C. tropicalis (PCM 2681), and A. brasiliensis (ATCC 16404). All the microorganisms were from the Polish Collection of Microorganisms (Wroclaw, Poland). MIC was determined using a microbroth dilution method with Mueller-Hinton (MH) broth for bacteria and Sabouraud Dextrose broth for fungi (Becton Dickinson, Le Pont de Claix, France). An initial inoculum of 10^5 cfu/mL was used for bacteria and 10^3 cfu/mL for fungi. Polypropylene 96-well plates (Kartell, Noviglio, Italy) were incubated for 18 h at 37°C for bacteria and for 48 h at 25°C for the tested fungi. MIC (μg/mL) was taken as the lowest concentration of the lipopeptide, at which the observable growth was inhibited. […] The experiments were performed in triplicate on three different days.

[2] = system: Bacillus subtilis (ATCC 6633)
Procedure: as §1

[3] = system: Candida albicans (ATCC 10231)
Procedure: as §1

[4] = system: Candida tropicalis (PCM 2681); conditions: PCM 2681, 48 h
Procedure: as §1

[5] = system: Enterococcus faecalis (ATCC 29212); conditions: for MBC Enterococcus fecalis: subculture on Mueller-Hinton II Agar, 24 h 37°C
Procedure: as §1

[6] = system: Escherichia coli (ATCC 25922)
Procedure: as §1

[7] = system: Klebsiella pneumoniae (ATCC 700603)
Procedure: as §1

[8] = system: Proteus vulgaris (PCM 2668); conditions: PCM 2668, TFA salt, triplicate; for MIC Proteus vulgaris: Mueller-Hinton broth, 10^5 cfu/mL, 18 h 37°C; for MBC Proteus vulgaris: subculture on Mueller-Hinton II Agar, 24 h 37°C
Procedure: as §1

[9] = system: Pseudomonas aeruginosa (ATCC 9027); conditions: for MBC Pseudomonas aeruginosa: subculture on Mueller-Hinton II Agar, 24 h 37°C
Procedure: as §1

[10] = system: Staphylococcus aureus (ATCC 25923); conditions: for MBC Staphylococcus aureus: MIC wells subcultured on Mueller-Hinton II Agar, 24 h 37°C, triplicate
Procedure: as §1

[11] = system: Staphylococcus epidermidis (PCM 2118)
Procedure: as §1

[12] = system: Pseudomonas aeruginosa (ATCC 9027); conditions: ATCC 9027, 24 h
[13] = ATCC 29212, TFA salt, triplicate
[14] = ATCC 25922, TFA salt, Mueller-Hinton broth, 10^5 cfu/mL, 18 h 37°C, triplicate
[15] = ATCC 25922, TFA salt, subculture on Mueller-Hinton II Agar, 24 h 37°C, triplicate
[16] = ATCC 700603, TFA salt, Mueller-Hinton broth, 10^5 cfu/mL, 18 h 37°C, triplicate
[17] = ATCC 700603, TFA salt, subculture on Mueller-Hinton II Agar, 24 h 37°C, triplicate
[18] = ATCC 9027, TFA salt, Mueller-Hinton broth, 10^5 cfu/mL, 18 h 37°C, triplicate
[19] = ATCC 9027, TFA salt, triplicate
[20] = ATCC 25923, TFA salt, Mueller-Hinton broth, 10^5 cfu/mL, 18 h 37°C, triplicate on three days
[21] = ATCC 29212, TFA salt, Mueller-Hinton broth, 10^5 cfu/mL, 18 h 37°C, triplicate

Structure (SMILES) | MFC Aspergillus brasiliensis [1] | MIC Aspergillus brasiliensis [1] | MFC Candida albicans ([3]; ATCC 10231, 48 h) | MIC Candida albicans ([3]; ATCC 10231, 48 h) | MFC Candida tropicalis [4] | MIC Candida tropicalis [4] | MBC Enterococcus fecalis [5, 13] | MIC Escherichia coli [6, 14] | MBC Escherichia coli [6, 15] | MIC Klebsiella pneumoniae [7, 16] | MBC Klebsiella pneumoniae [7, 17] | MIC Proteus vulgaris [8] | MBC Proteus vulgaris [8] | MBC Staphylococcus aureus ([10]; ATCC 25923, TFA salt) | MIC Staphylococcus aureus [10, 20] | MIC Bacillus subtillis ([2]; ATCC 6633, 18 h) | MBC Bacillus subtillis ([2]; ATCC 6633, 24 h) | MIC Enterococcus fecalis [5, 21] | MIC Staphylococcus epidermidis ([11]; PCM 2118, 18 h) | MBC Staphylococcus epidermidis ([11]; PCM 2118, 24 h) | further results
CCCCCCCC(=O)N[C@@H](CCCCN)C(=O)N[C@@H](CCCCN)C(=O)N[C@@H](CCCCN)C(=O)N[C@@H](CCCCN)C(N)=O [C8-KKKK-NH2] (Octanoyl-KKKK-NH2) | 2000 µg/mL (≈ 3050 µM) | 2000 µg/mL (≈ 3050 µM) | 2000 µg/mL (≈ 3050 µM) | 2000 µg/mL (≈ 3050 µM) | 2000 µg/mL (≈ 3050 µM) | 2000 µg/mL (≈ 3050 µM) | >2000 µg/mL | >1000 µg/mL | >1000 µg/mL | >2000 µg/mL | >2000 µg/mL | >2000 µg/mL | >2000 µg/mL | >2000 µg/mL | >2000 µg/mL | – | – | – | – | – | MIC Bacillus subtillis ([2]; ATCC 6633, TFA salt, Mueller-Hinton broth, 10^5 cfu/mL, 18 h 37°C, triplicate): >2000 µg/mL; MBC Bacillus subtillis ([2]; ATCC 6633, TFA salt, subculture on Mueller-Hinton II Agar, 24 h 37°C, triplicate): >2000 µg/mL; MIC Enterococcus fecalis ([5]; ATCC 29212, 18 h): 2000 µg/mL (≈ 3050 µM); MIC Pseudomonas aeruginosa [9, 18]: >2000 µg/mL; MBC Pseudomonas aeruginosa [9, 19]: >2000 µg/mL; MIC Staphylococcus epidermidis ([11]; PCM 2118, TFA salt, Mueller-Hinton broth, 10^5 cfu/mL, 18 h 37°C, triplicate): >2000 µg/mL; MBC Staphylococcus epidermidis ([11]; PCM 2118, TFA salt, subculture on Mueller-Hinton II Agar, 24 h 37°C, triplicate): >2000 µg/mL
CCCCCCCCCC(=O)N[C@@H](CCCCN)C(N)=O [C10-K-NH2] | 1000 µg/mL (≈ 3340 µM) | 512 µg/mL (≈ 1710 µM) | 2000 µg/mL (≈ 6680 µM) | 1000 µg/mL (≈ 3340 µM) | 2000 µg/mL (≈ 6680 µM) | 1000 µg/mL (≈ 3340 µM) | >2000 µg/mL | – | – | – | – | >2000 µg/mL | >2000 µg/mL | >1000 µg/mL | – | 1000 µg/mL (≈ 3340 µM) | 1000 µg/mL (≈ 3340 µM) | >2000 µg/mL | 1000 µg/mL (≈ 3340 µM) | 1000 µg/mL (≈ 3340 µM) | MIC Escherichia coli ([6]; ATCC 25922, 18 h): 1000 µg/mL (≈ 3340 µM); MBC Escherichia coli ([6]; ATCC 25922, 24 h): 1000 µg/mL (≈ 3340 µM); MIC Klebsiella pneumoniae ([7]; ATCC 700603, 18 h): 1000 µg/mL (≈ 3340 µM); MBC Klebsiella pneumoniae ([7]; ATCC 700603, 24 h): 1000 µg/mL (≈ 3340 µM); MIC Pseudomonas aeruginosa ([9]; ATCC 9027, 18 h): 512 µg/mL (≈ 1710 µM); MIC Staphylococcus aureus ([10]; ATCC 25923, 18 h): 1000 µg/mL (≈ 3340 µM); MBC Pseudomonas aeruginosa [12]: 1000 µg/mL (≈ 3340 µM)
CCCCCCCCCC(=O)N[C@@H](CCCCN)C(=O)NCC(N)=O [C10-KG-NH2] (Decanoyl-Lys-Gly-NH2) | 2000 µg/mL (≈ 5610 µM) | 1000 µg/mL (≈ 2800 µM) | 2000 µg/mL (≈ 5610 µM) | 1000 µg/mL (≈ 2800 µM) | 2000 µg/mL (≈ 5610 µM) | 1000 µg/mL (≈ 2800 µM) | >1000 µg/mL | >2000 µg/mL | >2000 µg/mL | – | – | >2000 µg/mL | >2000 µg/mL | >2000 µg/mL | >2000 µg/mL | 512 µg/mL (≈ 1440 µM) | 512 µg/mL (≈ 1440 µM) | – | 512 µg/mL (≈ 1440 µM) | 1000 µg/mL (≈ 2800 µM) | MIC Enterococcus fecalis ([5]; ATCC 29212, 18 h): 1000 µg/mL (≈ 2800 µM); MIC Klebsiella pneumoniae ([7]; ATCC 700603, 18 h): 1000 µg/mL (≈ 2800 µM); MBC Klebsiella pneumoniae ([7]; ATCC 700603, 24 h): 2000 µg/mL (≈ 5610 µM); MIC Pseudomonas aeruginosa ([9]; ATCC 9027, 18 h): 1000 µg/mL (≈ 2800 µM); MBC Pseudomonas aeruginosa [12]: 2000 µg/mL (≈ 5610 µM)
CCCCCCCCCC(=O)N[C@@H](CCCCN)C(=O)NCC(=O)N[C@@H](CCCCN)C(N)=O [C10-KGK-NH2] (Decanoyl-Lys-Gly-Lys-NH2) | 1000 µg/mL (≈ 2060 µM) | 1000 µg/mL (≈ 2060 µM) | 1000 µg/mL (≈ 2060 µM) | 1000 µg/mL (≈ 2060 µM) | 1000 µg/mL (≈ 2060 µM) | 512 µg/mL (≈ 1060 µM) | >2000 µg/mL | >2000 µg/mL | >2000 µg/mL | >2000 µg/mL | >2000 µg/mL | >2000 µg/mL | >2000 µg/mL | >2000 µg/mL | >2000 µg/mL | 512 µg/mL (≈ 1060 µM) | 1000 µg/mL (≈ 2060 µM) | >2000 µg/mL | 512 µg/mL (≈ 1060 µM) | 512 µg/mL (≈ 1060 µM) | MIC Pseudomonas aeruginosa ([9]; ATCC 9027, 18 h): 2000 µg/mL (≈ 4130 µM); MBC Pseudomonas aeruginosa [12]: 2000 µg/mL (≈ 4130 µM)
CCCCCCCCCC(=O)N[C@@H](CCCCN)C(=O)N[C@@H](CCCCN)C(=O)N[C@@H](CCCCN)C(N)=O [C10-KKK-NH2] | 2000 µg/mL (≈ 3600 µM) | 1000 µg/mL (≈ 1800 µM) | 2000 µg/mL (≈ 3600 µM) | 2000 µg/mL (≈ 3600 µM) | 2000 µg/mL (≈ 3600 µM) | 2000 µg/mL (≈ 3600 µM) | >2000 µg/mL | >2000 µg/mL | >2000 µg/mL | >2000 µg/mL | >2000 µg/mL | >2000 µg/mL | >2000 µg/mL | >2000 µg/mL | >2000 µg/mL | 128 µg/mL (≈ 230 µM) | 256 µg/mL (≈ 461 µM) | >2000 µg/mL | 128 µg/mL (≈ 230 µM) | 256 µg/mL (≈ 461 µM) | MIC Pseudomonas aeruginosa [9, 18]: >2000 µg/mL; MBC Pseudomonas aeruginosa [9, 19]: >2000 µg/mL
CCCCCCCCCC(=O)N[C@@H](CCCCN)C(=O)N[C@@H](CCCCN)C(=O)N[C@@H](CCCCN)C(=O)N[C@@H](CCCCN)C(N)=O [C10-KKKK-NH2] (Decanoyl-KKKK-NH2) | 2000 µg/mL (≈ 2920 µM) | 2000 µg/mL (≈ 2920 µM) | – | – | 2000 µg/mL (≈ 2920 µM) | 2000 µg/mL (≈ 2920 µM) | >2000 µg/mL | >2000 µg/mL | >2000 µg/mL | >2000 µg/mL | >2000 µg/mL | >2000 µg/mL | >2000 µg/mL | >2000 µg/mL | >2000 µg/mL | 128 µg/mL (≈ 187 µM) | 128 µg/mL (≈ 187 µM) | >2000 µg/mL | 64 µg/mL (≈ 93.6 µM) | 128 µg/mL (≈ 187 µM) | MIC Candida albicans ([3]; ATCC 10231, TFA salt, Sabouraud Dextrose broth, 10^3 cfu/mL, 48 h 25°C, triplicate): >2000 µg/mL; MFC Candida albicans ([3]; ATCC 10231, TFA salt, subculture on Sabouraud 2% Glucose Agar, 48 h 25°C, triplicate): >2000 µg/mL; MIC Pseudomonas aeruginosa [9, 18]: >2000 µg/mL; MBC Pseudomonas aeruginosa [9, 19]: >2000 µg/mL

Source: PMC5285354, “Cationic Net Charge and Counter Ion Type as Antimicrobial Activity Determinant Factors of Short Lipopeptides” (Frontiers in Microbiology, 2017)
